Key:
Format in all cases: in vivo
[1] = tested on: small-flower umbrella sedge (Cyperus difformis); assay: Test B flooded paddy test, small-flower umbrella sedge; settings: scale of 0 to 100, 0 no effect, 100 complete control, 13 to 15 days
Description: (§1) Plant species in the flooded paddy test selected from rice (Oryza sativa), small-flower umbrella sedge (Cyperus difformis), duck salad (Heteranthera limosa), and barnyardgrass (Echinochloa crus-galli) were grown to the 2-leaf stage for testing. At time of treatment, test pots were flooded to 3 cm above the soil surface, treated by application of test compounds directly to the paddy water, and then maintained at that water depth for the duration of the test. Treated plants and controls were maintained in a greenhouse for 13 to 15 days, after which time all species were visually compared to controls and visually evaluated. Plant response ratings, summarized in Table B, are based on a scale of 0 to 100 where 0 is no effect and 100 is complete control. A dash (-) response means no test result.

[2] = tested on: pigweed (redroot pigweed, Amaranthus retroflexus); assay: Test A greenhouse pre-/postemergence herbicide test, pigweed; settings: 0 to 100 scale, 0 no effect, 100 complete control, approx. 10 days
From the text: (§2) Seeds of plant species selected from barnyardgrass (Echinochloa crus-galli), large (Lg) crabgrass (Digitaria sanguinalis), giant foxtail (Setaria faberii), morningglory (Ipomoea spp.), pigweed (redroot pigweed, Amaranthus retroflexus), velvetleaf (Abutilon theophrasti), winter wheat (Triticum aestivum), and corn (Zea mays) were planted into a blend of loam soil and sand and treated preemergence with a directed soil spray using test chemicals formulated in a non-phytotoxic solvent mixture which included a surfactant. At the same time these species were also treated with postemergence applications of test compounds formulated in the same manner. Plants ranged in height from 2 to 10 cm and were in the one- to two-leaf stage for the postemergence treatment. Treated plants and untreated controls were maintained in a greenhouse for approximately 10 days, after which time all treated plants were visually compared to untreated controls and visually evaluated for injury. Plant response ratings, summarized in Table A, are based on a 0 to 100 scale where 0 is no effect and 100 is complete control. A dash (-) response means no test result.

[3] = tested on: large (Lg) crabgrass (Digitaria sanguinalis); assay: Test A greenhouse pre-/postemergence herbicide test, large crabgrass; settings: 0 to 100 scale, 0 no effect, 100 complete control, approx. 10 days
From the text: as §2

[4] = tested on: velvetleaf (Abutilon theophrasti); assay: Test A greenhouse pre-/postemergence herbicide test, velvetleaf; settings: 0 to 100 scale, 0 no effect, 100 complete control, approx. 10 days
From the text: as §2

corn (Zea mays) = assay: Test A greenhouse pre-/postemergence herbicide test, corn; settings: 0 to 100 scale, 0 no effect, 100 complete control, approx. 10 days
From the text: as §2

[5] = tested on: giant foxtail (Setaria faberii); assay: Test A greenhouse pre-/postemergence herbicide test, giant foxtail; settings: 0 to 100 scale, 0 no effect, 100 complete control, approx. 10 days
From the text: as §2

[6] = tested on: barnyardgrass (Echinochloa crus-galli); assay: Test B flooded paddy test, barnyardgrass; settings: scale of 0 to 100, 0 no effect, 100 complete control, 13 to 15 days
Description: as §1

[7] = tested on: morningglory (Ipomoea spp.); assay: Test A greenhouse pre-/postemergence herbicide test, morningglory; settings: 0 to 100 scale, 0 no effect, 100 complete control, approx. 10 days
From the text: as §2

[8] = tested on: barnyardgrass (Echinochloa crus-galli); assay: Test A greenhouse pre-/postemergence herbicide test, barnyardgrass; settings: 0 to 100 scale, 0 no effect, 100 complete control, approx. 10 days
From the text: as §2

[9] = tested on: winter wheat (Triticum aestivum); assay: Test A greenhouse pre-/postemergence herbicide test, winter wheat; settings: 0 to 100 scale, 0 no effect, 100 complete control, approx. 10 days
From the text: as §2

[10] = tested on: duck salad (Heteranthera limosa); assay: Test B flooded paddy test, duck salad; settings: scale of 0 to 100, 0 no effect, 100 complete control, 13 to 15 days
Description: as §1

rice (Oryza sativa) = assay: Test B flooded paddy test, rice; settings: scale of 0 to 100, 0 no effect, 100 complete control, 13 to 15 days
Description: as §1

## Cn1nc(C(=O)C2=C(O)CCCC2=O)c(=O)n(CCS(=O)(=O)CC2CC2)c1=O [Compound 3, 4-[2-[(cyclopropylmethyl)sulfonyl]ethyl]-6-[(2-hydroxy-6-oxo-1-cyclohexen-1-yl)carbonyl]-2-methyl-1,2,4-triazine-3,5(2H,4H)-dione]
[1]; 31 g ai/ha Flood
  Plant response rating, Sedge, Umbrella: 0
[1]; 62 g ai/ha Flood
  Plant response rating, Sedge, Umbrella: 0
[1]; 125 g ai/ha Flood
  Plant response rating, Sedge, Umbrella: 50
[1]; 250 g ai/ha Flood
  Plant response rating, Sedge, Umbrella: 75
[2]; 31 g ai/ha Postemergence
  Plant response rating, Pigweed: 40
[2]; 31 g ai/ha Preemergence
  Plant response rating, Pigweed: 20
[2]; 125 g ai/ha Postemergence
  Plant response rating, Pigweed: 100
[2]; 125 g ai/ha Preemergence
  Plant response rating, Pigweed: 100
[3]; 31 g ai/ha Postemergence
  Plant response rating, Crabgrass, Large: 30
[3]; 31 g ai/ha Preemergence
  Plant response rating, Crabgrass, Large: 10
[3]; 125 g ai/ha Postemergence
  Plant response rating, Crabgrass, Large: 90
[3]; 125 g ai/ha Preemergence
  Plant response rating, Crabgrass, Large: 40
[4]; 31 g ai/ha Postemergence
  Plant response rating, Velvetleaf: 100
[4]; 31 g ai/ha Preemergence
  Plant response rating, Velvetleaf: 0
[4]; 125 g ai/ha Postemergence
  Plant response rating, Velvetleaf: 100
[4]; 125 g ai/ha Preemergence
  Plant response rating, Velvetleaf: 30
Corn (Zea mays); 31 g ai/ha Postemergence
  Plant response rating, Corn: 0
Corn (Zea mays); 31 g ai/ha Preemergence
  Plant response rating, Corn: 0
Corn (Zea mays); 125 g ai/ha Postemergence
  Plant response rating, Corn: 0
Corn (Zea mays); 125 g ai/ha Preemergence
  Plant response rating, Corn: 0
[5]; 31 g ai/ha Postemergence
  Plant response rating, Foxtail, Giant: 0
[5]; 31 g ai/ha Preemergence
  Plant response rating, Foxtail, Giant: 0
[5]; 125 g ai/ha Postemergence
  Plant response rating, Foxtail, Giant: 40
[5]; 125 g ai/ha Preemergence
  Plant response rating, Foxtail, Giant: 0
[6]; 31 g ai/ha Flood
  Plant response rating, Barnyardgrass: 0
[6]; 62 g ai/ha Flood
  Plant response rating, Barnyardgrass: 0
[6]; 125 g ai/ha Flood
  Plant response rating, Barnyardgrass: 0
[6]; 250 g ai/ha Flood
  Plant response rating, Barnyardgrass: 20
[7]; 31 g ai/ha Postemergence
  Plant response rating, Morningglory: 60
[7]; 125 g ai/ha Postemergence
  Plant response rating, Morningglory: 60
[7]; 125 g ai/ha Preemergence
  Plant response rating, Morningglory: 10
[8]; 31 g ai/ha Postemergence
  Plant response rating, Barnyardgrass: 20
[8]; 31 g ai/ha Preemergence
  Plant response rating, Barnyardgrass: 0
[8]; 125 g ai/ha Postemergence
  Plant response rating, Barnyardgrass: 90
[8]; 125 g ai/ha Preemergence
  Plant response rating, Barnyardgrass: 40
[9]; 31 g ai/ha Postemergence
  Plant response rating, Wheat: 0
[9]; 31 g ai/ha Preemergence
  Plant response rating, Wheat: 0
[9]; 125 g ai/ha Postemergence
  Plant response rating, Wheat: 30
[9]; 125 g ai/ha Preemergence
  Plant response rating, Wheat: 10
[10]; 31 g ai/ha Flood
  Plant response rating, Ducksalad: 0
[10]; 62 g ai/ha Flood
  Plant response rating, Ducksalad: 0
[10]; 125 g ai/ha Flood
  Plant response rating, Ducksalad: 0
[10]; 250 g ai/ha Flood
  Plant response rating, Ducksalad: 85
Rice (Oryza sativa); 31 g ai/ha Flood
  Plant response rating, Rice: 0
Rice (Oryza sativa); 62 g ai/ha Flood
  Plant response rating, Rice: 0
Rice (Oryza sativa); 125 g ai/ha Flood
  Plant response rating, Rice: 0
Rice (Oryza sativa); 250 g ai/ha Flood
  Plant response rating, Rice: 30

## Cn1nc(C(=O)C2=C(O)CCCC2=O)c(=O)n(CCSCC2CC2)c1=O [Compound 4, 4-[2-[(cyclopropylmethyl)thio]ethyl]-6-[(2-hydroxy-6-oxo-1-cyclohexen-1-yl)carbonyl]-2-methyl-1,2,4-triazine-3,5(2H,4H)-dione]
[1]; 31 g ai/ha Flood
  Plant response rating, Sedge, Umbrella: 0
[1]; 62 g ai/ha Flood
  Plant response rating, Sedge, Umbrella: 0
[1]; 125 g ai/ha Flood
  Plant response rating, Sedge, Umbrella: 50
[1]; 250 g ai/ha Flood
  Plant response rating, Sedge, Umbrella: 65
[2]; 31 g ai/ha Postemergence
  Plant response rating, Pigweed: 10
[2]; 31 g ai/ha Preemergence
  Plant response rating, Pigweed: 0
[2]; 125 g ai/ha Postemergence
  Plant response rating, Pigweed: 50
[2]; 125 g ai/ha Preemergence
  Plant response rating, Pigweed: 0
[3]; 31 g ai/ha Postemergence
  Plant response rating, Crabgrass, Large: 0
[3]; 31 g ai/ha Preemergence
  Plant response rating, Crabgrass, Large: 0
[3]; 125 g ai/ha Postemergence
  Plant response rating, Crabgrass, Large: 10
[3]; 125 g ai/ha Preemergence
  Plant response rating, Crabgrass, Large: 0
[4]; 31 g ai/ha Postemergence
  Plant response rating, Velvetleaf: 70
[4]; 31 g ai/ha Preemergence
  Plant response rating, Velvetleaf: 0
[4]; 125 g ai/ha Postemergence
  Plant response rating, Velvetleaf: 90
[4]; 125 g ai/ha Preemergence
  Plant response rating, Velvetleaf: 0
Corn (Zea mays); 31 g ai/ha Postemergence
  Plant response rating, Corn: 0
Corn (Zea mays); 31 g ai/ha Preemergence
  Plant response rating, Corn: 0
Corn (Zea mays); 125 g ai/ha Postemergence
  Plant response rating, Corn: 0
Corn (Zea mays); 125 g ai/ha Preemergence
  Plant response rating, Corn: 0
[5]; 31 g ai/ha Postemergence
  Plant response rating, Foxtail, Giant: 0
[5]; 31 g ai/ha Preemergence
  Plant response rating, Foxtail, Giant: 0
[5]; 125 g ai/ha Postemergence
  Plant response rating, Foxtail, Giant: 0
[5]; 125 g ai/ha Preemergence
  Plant response rating, Foxtail, Giant: 0
[6]; 31 g ai/ha Flood
  Plant response rating, Barnyardgrass: 0
[6]; 62 g ai/ha Flood
  Plant response rating, Barnyardgrass: 0
[6]; 125 g ai/ha Flood
  Plant response rating, Barnyardgrass: 0
[6]; 250 g ai/ha Flood
  Plant response rating, Barnyardgrass: 15
[7]; 31 g ai/ha Postemergence
  Plant response rating, Morningglory: 10
[7]; 31 g ai/ha Preemergence
  Plant response rating, Morningglory: 0
[7]; 125 g ai/ha Postemergence
  Plant response rating, Morningglory: 100
[7]; 125 g ai/ha Preemergence
  Plant response rating, Morningglory: 0
[8]; 31 g ai/ha Postemergence
  Plant response rating, Barnyardgrass: 0
[8]; 31 g ai/ha Preemergence
  Plant response rating, Barnyardgrass: 0
[8]; 125 g ai/ha Postemergence
  Plant response rating, Barnyardgrass: 10
[8]; 125 g ai/ha Preemergence
  Plant response rating, Barnyardgrass: 0
[9]; 31 g ai/ha Postemergence
  Plant response rating, Wheat: 0
[9]; 31 g ai/ha Preemergence
  Plant response rating, Wheat: 0
[9]; 125 g ai/ha Postemergence
  Plant response rating, Wheat: 10
[9]; 125 g ai/ha Preemergence
  Plant response rating, Wheat: 0
[10]; 31 g ai/ha Flood
  Plant response rating, Ducksalad: 0
[10]; 62 g ai/ha Flood
  Plant response rating, Ducksalad: 0
[10]; 125 g ai/ha Flood
  Plant response rating, Ducksalad: 50
[10]; 250 g ai/ha Flood
  Plant response rating, Ducksalad: 65
Rice (Oryza sativa); 31 g ai/ha Flood
  Plant response rating, Rice: 0
Rice (Oryza sativa); 62 g ai/ha Flood
  Plant response rating, Rice: 0
Rice (Oryza sativa); 125 g ai/ha Flood
  Plant response rating, Rice: 15
Rice (Oryza sativa); 250 g ai/ha Flood
  Plant response rating, Rice: 60

Reference: patent US20140106968A1, “SUBSTITUTED 1,2,4-TRIAZINE-3,5-DIONES AS HERBICIDES” (E I Du Pont De Nemours and Company, priority 2012, published 2014)
